Where a name gives a salt, the structure may show the parent alone.

In general, IC50 refers to the point on the concentration scale where inhibition reaches its midpoint.

PDE10A, sequence (Q9Y233 whole entry): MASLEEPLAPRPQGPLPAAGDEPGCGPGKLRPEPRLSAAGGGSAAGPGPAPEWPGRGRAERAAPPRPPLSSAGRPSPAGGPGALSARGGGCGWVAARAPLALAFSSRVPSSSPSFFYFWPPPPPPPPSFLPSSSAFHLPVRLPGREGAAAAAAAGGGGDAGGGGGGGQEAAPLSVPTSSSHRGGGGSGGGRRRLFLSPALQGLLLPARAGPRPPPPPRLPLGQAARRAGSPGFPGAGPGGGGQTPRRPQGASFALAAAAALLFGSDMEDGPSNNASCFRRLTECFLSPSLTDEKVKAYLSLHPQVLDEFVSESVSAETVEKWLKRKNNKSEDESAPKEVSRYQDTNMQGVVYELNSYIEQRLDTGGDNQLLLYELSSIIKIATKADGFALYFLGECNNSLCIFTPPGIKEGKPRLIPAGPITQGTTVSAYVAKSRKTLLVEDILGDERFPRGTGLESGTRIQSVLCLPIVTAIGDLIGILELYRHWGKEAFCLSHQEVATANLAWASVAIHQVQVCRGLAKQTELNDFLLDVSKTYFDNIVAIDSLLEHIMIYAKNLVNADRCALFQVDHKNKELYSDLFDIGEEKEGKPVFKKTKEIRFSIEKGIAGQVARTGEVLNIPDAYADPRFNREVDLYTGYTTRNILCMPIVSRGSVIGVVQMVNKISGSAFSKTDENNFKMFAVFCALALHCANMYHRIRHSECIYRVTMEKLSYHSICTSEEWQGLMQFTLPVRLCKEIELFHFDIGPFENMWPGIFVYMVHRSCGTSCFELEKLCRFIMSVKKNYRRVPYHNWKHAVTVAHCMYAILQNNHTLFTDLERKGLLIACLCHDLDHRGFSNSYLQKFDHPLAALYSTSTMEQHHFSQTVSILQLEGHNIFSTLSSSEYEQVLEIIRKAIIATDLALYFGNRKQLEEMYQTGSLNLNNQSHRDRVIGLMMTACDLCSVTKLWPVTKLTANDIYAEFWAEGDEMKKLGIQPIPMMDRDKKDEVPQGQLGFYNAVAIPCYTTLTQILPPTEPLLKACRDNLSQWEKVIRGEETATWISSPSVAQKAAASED

The assay has as its target PDE10A (Homo sapiens (Human), UniProt Q9Y233). Put plainly: Measurement of PDE10A inhibitory activity-2 (PDE10A fraction prepared from MOLT-4 cells). Conditions: PDE10A fraction from MOLT-4 cells (peak around 250 mM NaCl). Type of assay: biochemical. The protocol:
A human acute lymphoblastic lymphoma T cell line MOLT-4 (which can be purchased under ATCC No. CRL-1582 from ATCC) was cultured in an RPMI1640 medium containing 10% fetal bovine serum to obtain 5×10^8 MOLT-4 cells. The cells were recovered by centrifugation and suspended in 10 ml of buffer solution A (25 mM Tris-HCl, 5 mM 2-mercaptoethanol, 2 mM benzamidine, 2 mM EDTA, and 0.1 mM 4-(2-aminoethyl)benzenesulfonyl hydrochloride, pH 7.5). The cells were homogenized using a Polytron homogenizer and centrifuged (4° C., 25,000 g, 10 minutes). Then, the supernatant was further ultracentrifuged (4° C., 100,000 g, 60 minutes). The obtained supernatant was filtered through a 0.2 μm filter to obtain a soluble fraction.
HiTrap Q HP column (5 ml×2, GE Healthcare Japan Corp.) equilibrated with buffer solution A was charged with the obtained soluble fraction. Phosphodiesterase was eluted with 300 ml of buffer solution A containing a linear gradient solution of 0 to 0.8 M NaCl to recover sixty 5-ml fractions. Each fraction was tested for cAMP-metabolizing phosphodiesterase activity.
On the other hand, total RNA was prepared from Jurkat cells, one type of human T cell, and similarly subjected to RT-PCR. […] Eur J Biochem. 1999, 266 (3), 1118-2 has reported that PDE10A from the rat striatum and testis is eluted as an active peak centered around 250 mM NaCl.
For these reasons, this fraction was used as a solution for the evaluation of PDE10A inhibitory activity. The obtained solution was used to calculate the inhibitory activity (IC50) of a test compound in the same way as in the aforementioned test.
Take `CC(=O)c1ccc(C(C)=O)c2c(C)c(C(=O)Nc3ccc4ccccc4n3)sc12` [Example 1, 4,7-Diacetyl-3-methyl-N-(quinolin-2-yl)benzo[b]thiophene-2-carboxamide]: inhibition was half-maximal at 1.6 nM (IC50). As for `CC(=O)c1ccc(C(C)=O)c2c(C)c(C(=O)Nc3cc(C(C)(C)O)c4ccccc4n3)sc12` [Example 2, 4,7-Diacetyl-N-(4-(2-hydroxypropan-2-yl)quinolin-2-yl)-3-methylbenzo[b]thiophene-2-carboxamide], the figure is 2.6 nM. In the case of `CCc1c(C(=O)Nc2cc(C(C)(C)O)c3ccccc3n2)sc2c(C(C)=O)ccc(C(C)=O)c12` [Example 7, 4,7-Diacetyl-3-ethyl-N-(4-(2-hydroxypropan-2-yl)quinolin-2-yl)benzo[b]thiophene-2-carboxamide], half-maximal inhibition (IC50) was put at 5 nM.

In turn, `CC(=O)c1ccc(C(C)=O)c2sc(C(=O)Nc3cc(C(C)(C)O)c4ccccc4n3)cc12` [Example 8, 4,7-Diacetyl-N-(4-(2-hydroxypropan-2-yl)quinolin-2-yl)benzo[b]thiophene-2-carboxamide] registered an IC50 of 12 nM.

Regarding `CC(=O)c1ccc(C(C)O)c2c(C)c(C(=O)Nc3cc(C(C)(C)O)c4ccccc4n3)sc12` (stereo not drawn) [Example 9, 7-Acetyl-4-(1-hydroxyethyl)-N-(4-(2-hydroxypropan-2-yl)quinolin-2-yl)-3-methylbenzo[b]thiophene-2-carboxamide], the IC50 was found to be 7.8 nM. Regarding `CCC(=O)c1ccc(C(C)=O)c2sc(C(=O)Nc3cc(C(C)(C)O)c4ccccc4n3)c(C)c12` [Example 10, 7-Acetyl-N-(4-(2-hydroxypropan-2-yl)quinolin-2-yl)-3-methyl-4-propionylbenzo[b]thiophene-2-carboxamide], 20 nM corresponded to half-maximal inhibition (IC50).

In the case of `CC(=O)c1ccc(C(C)=O)c2c(C)c(C(=O)Nc3cc(C)c4ccccc4n3)sc12` [Example 11, 4,7-Diacetyl-3-methyl-N-(4-methylquinolin-2-yl)benzo[b]thiophene-2-carboxamide], the IC50 came to 2.2 nM.

The compound `COc1cc(NC(=O)c2sc3c(C(C)=O)ccc(C(C)=O)c3c2C)nc2ccccc12` [Example 12, 4,7-Diacetyl-N-(4-methoxyquinolin-2-yl)-3-methylbenzo[b]thiophene-2-carboxamide] displayed an IC50 of 4.4 nM. Regarding `CC(=O)c1ccc(C(C)=O)c2c(C)c(C(=O)Nc3cc(C(C)O)c4ccccc4n3)sc12` (stereo not drawn) [Example 13, 4,7-Diacetyl-N-(4-(1-hydroxyethyl)quinolin-2-yl)-3-methylbenzo[b]thiophene-2-carboxamide], the IC50 is 2 nM.

`CC(=O)c1ccc(C(C)=O)c2c(C)c(C(=O)Nc3cc(CO)c4ccccc4n3)sc12` [Example 14, 4,7-Diacetyl-N-(4-(hydroxymethyl)quinolin-2-yl)-3-methylbenzo[b]thiophene-2-carboxamide] registered a half-maximal inhibitory concentration (IC50) of 0.89 nM. Compound `CC(=O)c1ccc(C(C)=O)c2c(C)c(C(=O)Nc3cc(CN(C)C(C)=O)c4ccccc4n3)sc12` [Example 15, 4,7-Diacetyl-3-methyl-N-(4-((N-methylacetamido)methyl)quinolin-2-yl)benzo[b]thiophene-2-carboxamide] returned an IC50 of 2.3 nM. For the compound `CCC(=O)c1cccc2c(C)c(C(=O)Nc3cc(C(C)(C)O)c4ccccc4n3)sc12` [Example 16, N-(4-(2-Hydroxypropan-2-yl)quinolin-2-yl)-3-methyl-7-propionylbenzo[b]thiophene-2-carboxamide], the IC50 came to 4.8 nM. In turn, `CCCC(=O)c1cccc2c(C)c(C(=O)Nc3cc(C(C)(C)O)c4ccccc4n3)sc12` [Example 17, 7-Butyryl-N-(4-(2-hydroxypropan-2-yl)quinolin-2-yl)-3-methylbenzo[b]thiophene-2-carboxamide] came in with an IC50 of 2.6 nM. `Cc1c(C(=O)Nc2cc(C(C)(C)O)c3ccccc3n2)sc2c(C(=O)C(C)C)cccc12` [Example 18, N-(4-(2-Hydroxypropan-2-yl)quinolin-2-yl)-7-isobutyryl-3-methylbenzo[b]thiophene-2-carboxamide] yielded an IC50 of 0.47 nM. The result for `Cc1c(C(=O)Nc2cc(C(C)(C)O)c3ccccc3n2)sc2c(C(=O)C3CC3)cccc12` [Example 19, 7-(Cyclopropylcarbonyl)-N-(4-(2-hydroxypropan-2-yl)quinolin-2-yl)-3-methylbenzo[b]thiophene-2-carboxamide] reads 0.92 nM. As for `CCCCC(=O)c1cccc2c(C)c(C(=O)Nc3cc(C(C)(C)O)c4ccccc4n3)sc12` [Example 20, N-(4-(2-Hydroxypropan-2-yl)quinolin-2-yl)-3-methyl-7-pentanoylbenzo[b]thiophene-2-carboxamide], the figure is 10 nM; as for `Cc1c(C(=O)Nc2cc(C(C)(C)O)c3ccccc3n2)sc2c(C(=O)C3CCC3)cccc12` [Example 21, 7-(Cyclobutylcarbonyl)-N-(4-(2-hydroxypropan-2-yl)quinolin-2-yl)-3-methylbenzo[b]thiophene-2-carboxamide], 0.67 nM; as for `Cc1c(C(=O)Nc2cc(C(C)(C)O)c3ccccc3n2)sc2c(C(=O)C(C)(C)C)cccc12` [Example 22, N-(4-(2-Hydroxypropan-2-yl)quinolin-2-yl)-3-methyl-7-pivaloylbenzo[b]thiophene-2-carboxamide], 1 nM.

As for `Cc1c(C(=O)Nc2cc(C(C)(C)O)c3ccccc3n2)sc2c(C(=O)CC(C)C)cccc12` [Example 23, N-(4-(2-Hydroxypropan-2-yl)quinolin-2-yl)-3-methyl-7-(3-methylbutanoyl)benzo[b]thiophene-2-carboxamide], it took 10 nM to reach half-maximal inhibition (IC50). For the compound `CCC(CC)C(=O)c1cccc2c(C)c(C(=O)Nc3cc(C(C)(C)O)c4ccccc4n3)sc12` [Example 24, 7-(2-Ethylbutanoyl)-N-(4-(2-hydroxypropan-2-yl)quinolin-2-yl)-3-methylbenzo[b]thiophene-2-carboxamide], the midpoint of inhibition, the IC50, lay at 25 nM. Take `Cc1c(C(=O)Nc2cc(C(C)(C)O)c3ccccc3n2)sc2c(C(=O)C3CCCC3)cccc12` [Example 25, 7-(Cyclopentylcarbonyl)-N-(4-(2-hydroxypropan-2-yl)quinolin-2-yl)-3-methylbenzo[b]thiophene-2-carboxamide]: the midpoint of inhibition, the IC50, lay at 4 nM. The result for `CCOCc1ccc(C(C)=O)c2sc(C(=O)Nc3cc(C(C)(C)O)c4ccccc4n3)c(C)c12` [Example 29, 7-Acetyl-4-(ethoxymethyl)-N-(4-(2-hydroxypropan-2-yl)quinolin-2-yl)-3-methylbenzo[b]thiophene-2-carboxamide] reads 3 nM; that for `CCCOCc1ccc(C(C)=O)c2sc(C(=O)Nc3cc(C(C)(C)O)c4ccccc4n3)c(C)c12` [Example 30, 7-Acetyl-N-(4-(2-hydroxypropan-2-yl)quinolin-2-yl)-3-methyl-4-(propoxymethyl)benzo[b]thiophene-2-carboxamide], 11 nM. `CC(=O)c1ccc(COC(C)C)c2c(C)c(C(=O)Nc3cc(C(C)(C)O)c4ccccc4n3)sc12` [Example 31, 7-Acetyl-N-(4-(2-hydroxypropan-2-yl)quinolin-2-yl)-4-(isopropoxymethyl)-3-methylbenzo[b]thiophene-2-carboxamide] registered an IC50 of 16 nM.

Consider `COC(C)c1ccc(C(C)=O)c2sc(C(=O)Nc3cc(C(C)(C)O)c4ccccc4n3)c(C)c12` (stereo not drawn) [Example 32, 7-Acetyl-N-(4-(2-hydroxypropan-2-yl)quinolin-2-yl)-4-(1-methoxyethyl)-3-methylbenzo[b]thiophene-2-carboxamide], for which the half-maximal inhibitory concentration (IC50) turned out to be 9.1 nM.

Compound `COCc1ccc(C(C)=O)c2sc(C(=O)Nc3cc(C(C)O)c4ccccc4n3)c(C)c12` (stereo not drawn) [Example 33, 7-Acetyl-N-(4-(1-hydroxyethyl)quinolin-2-yl)-4-(methoxymethyl)-3-methylbenzo[b]thiophene-2-carboxamide hydrochloride] had an IC50 of 0.9 nM. For the compound `COCc1ccc(C(C)=O)c2sc(C(=O)Nc3cc(CN(C)CCO)c4ccccc4n3)c(C)c12` [Example 34, 7-Acetyl-N-(4-(((2-hydroxyethyl)(methyl)amino)methyl)quinolin-2-yl)-4-(methoxymethyl)-3-methylbenzo[b]thiophene-2-carboxamide dihydrochloride], the 50% inhibitory concentration (IC50) came out at 0.94 nM. Regarding `COCc1ccc(C(C)=O)c2sc(C(=O)Nc3cc(CN4CCC(O)C4)c4ccccc4n3)c(C)c12` (stereo not drawn) [Example 35, 7-Acetyl-N-(4-((3-hydroxypyrrolidin-1-yl)methyl)quinolin-2-yl)-4-(methoxymethyl)-3-methylbenzo[b]thiophene-2-carboxamide], the IC50 stood at 0.29 nM.

Consider `COCc1ccc(C(C)=O)c2sc(C(=O)Nc3cc(CN4CCCC(O)C4)c4ccccc4n3)c(C)c12` (stereo not drawn) [Example 37, 7-Acetyl-N-(4-((3-hydroxypiperidin-1-yl)methyl)quinolin-2-yl)-4-(methoxymethyl)-3-methylbenzo[b]thiophene-2-carboxamide], for which the IC50 was 0.5 nM. The result for `COCc1ccc(C(C)=O)c2sc(C(=O)Nc3cc(CN4CCCC4)c4ccccc4n3)c(C)c12` [Example 43, 7-Acetyl-4-(methoxymethyl)-3-methyl-N-(4-(pyrrolidin-1-ylmethyl)quinolin-2-yl)benzo[b]thiophene-2-carboxamide] reads 6.2 nM.

These data come from patent publication US9464076B2, “Benzothiophene derivative” (Daiichi Sankyo Company, Limited, priority 2013, dated 2016).
